≈ marks a conversion by molar mass, not a printed value. Like-named read-outs stand apart in the source and are kept apart here.
How the values were obtained:
[1] = system: chloroquine-resistant K1 strain of P. falciparum; test: in vitro screen against chloroquine-resistant K1 strain of P. falciparum; type: cell-based; details: for IC50: Plasmodium falciparum; for in vitro potency: strains not distinguished
[2] = system: ANKA strain of P. Berghei; test: single dose STI in vivo screen in infected Moro SPF mice; details: for in vivo activity: 10 mg/kg po/sc data of Table 2; for Activity (%) po / Activity (%) sc: percent reduction in parasitemia day 3 post-infection; for antimalarial activity, overall assessment: overall judgement of in vitro and in vivo data of Table 2
Description: In the single dose STI in vivo screen, Moro SPF mice infected with the ANKA strain of P. Berghei (groups of three mice) were treated on day one post-infection with trioxolanes dissolved or suspended in 3% ethanol and 7% Tween 80. […] Antimalarial activity was measured by percent redution in parasitemia on day three post-infection and survival times compared to an untreated control group. Survival to day 30 post-infection is considered to be a cure.

[3] = system: chloroquine-sensitive NF54 strain of P. falciparum; test: in vitro screen against chloroquine-sensitive NF54 strain of P. falciparum; type: cell-based; details: for IC50: Plasmodium falciparum
[4] = differential scanning calorimetry (DSC), thermal stability; type: physicochemical; details: thermal decomposition
[5] = in vitro, K1 strain, read-out: IC50 (ng/ml) K1
[6] = in vitro, NF54 strain, read-out: IC50 (ng/ml) NF54

| Structure (SMILES) | IC50 (ng/ml) K1 ([1]; in vitro, K1 strain) | in vivo activity [2] | IC50 (ng/ml) NF54 ([3]; in vitro, NF54 strain) | Tm dec. (° C.) [4] | in vitro potency ([1]; in vitro) | also measured |
| --- | --- | --- | --- | --- | --- | --- |
| CCOC(=O)CC1CCC2(CC1)OOC1(O2)C2CC3CC(C2)CC1C3 (stereo not shown) [OZ61, Adamantane-2-spiro-3′-8′-ethoxycarbonylmethyl-1′,2′,4′-trioxaspiro[4.5]decane] | 0.52 ng/mL (≈ 0.00148 µM) | modest | 0.53 ng/mL (≈ 0.00151 µM) | 161.7 °C |  |  |
| c1ccc(C2CCC3(CC2)OOC2(CCC(c4ccccc4)CC2)O3)cc1 (stereo not shown) [OZ62, 3,11-Diphenyl-7,14,15-trioxadispiro[5.1.5.2]pentadecane] |  |  |  | 201.0 °C |  | IC50 [1, 5]: 33 ng/mL (≈ 0.0905 µM); Activity (%) po ([2]; single 10 mg/kg po): 0/0%; Activity (%) sc ([2]; single 10 mg/kg sc): 0/0%; IC50 [3, 6]: 28 ng/mL (≈ 0.0768 µM) |
| Fc1ccc(C2(c3ccc(F)cc3)OOC3(CCC(c4ccccc4)CC3)O2)cc1 (stereo not shown) [OZ66, 3,3-Bis(4-fluorophenyl)-8-phenyl-1,2,4-trioxaspiro[4.5]decane] |  |  |  | 198.5 °C |  | IC50 [1, 5]: 44 ng/mL (≈ 0.108 µM); antimalarial activity, overall assessment [2]: completely inactive; Activity (%) po ([2]; single 10 mg/kg po): 0/0%; Activity (%) sc ([2]; single 10 mg/kg sc): 0/0%; IC50 [3, 6]: 36 ng/mL (≈ 0.0881 µM) |
| CCOC(=O)C1CCC2(CC1)OOC1(O2)C2CC3CC(C2)CC1C3 (stereo not shown) [OZ70, Adamantane-2-spiro-3′-8′-ethoxycarbonyl-1′,2′,4′-trioxaspiro[4.5]decane] | 1.2 ng/mL (≈ 0.00357 µM) |  | 1.1 ng/mL (≈ 0.00327 µM) | 162.8 °C |  | Survival (days) po ([2]; single 10 mg/kg po): 7.7/7.7 days; Survival (days) sc ([2]; single 10 mg/kg sc): 7.7/7.7 days |
| O=C(O)[C@H]1CC[C@]2(CC1)OOC1(O2)C2CC3CC(C2)CC1C3 (stereo partly drawn) [OZ71, cis-Adamantane-2-spiro-3′-8′-carboxy-1′,2′,4′-trioxaspiro[4.5]decane] | 4.5 ng/mL (≈ 0.0146 µM) |  | 3.7 ng/mL (≈ 0.012 µM) | 165.9 °C |  |  |
| O=C(O)[C@H]1CC[C@@]2(CC1)OOC1(O2)C2CC3CC(C2)CC1C3 (stereo partly drawn) [OZ72, trans-Adamantane-2-spiro-3′-8′-carboxy-1′,2′,4′-trioxaspiro[4.5]decane] | 15 ng/mL (≈ 0.0486 µM) |  | 13 ng/mL (≈ 0.0422 µM) | 161.9 °C |  |  |
| O=C(O)CC1CCC2(CC1)OOC1(O2)C2CC3CC(C2)CC1C3 (stereo not shown) [OZ78, Adamantane-2-spiro-3′-8′-carboxymethyl-1′,2′,4′-trioxaspiro[4.5]decane] | >10/>10 ng/ml | promising | >10/>10 ng/ml | 157.5 °C | only weakly active |  |
| C1CC2(CCN1)OOC1(O2)C2CC3CC(C2)CC1C3.Cl (stereo not shown) [OZ80, Adamantane-2-spiro-3′-1′,2′,4′-trioxa-8′-azaspiro[4.5]decane hydrochloride] |  | modest |  | 129.8 °C | quite potent | IC50 ([1]; K1, read-out: IC50 (ng/ml) K1): < 0.16 ng/mL; IC50 ([3]; NF54, read-out: IC50 (ng/ml) NF54): 0.34 ng/mL |
| c1ccc(C2(c3ccccn3)OOC3(O2)C2CC4CC(C2)CC3C4)nc1 (stereo not shown) [OZ81, Adamantane-2-spiro-3′-5′,5′-bis(2′-pyridyl)-1′,2′,4′-trioxolane] | >10/>10 ng/ml |  | >10/>10 ng/ml | 150.7 °C |  | antimalarial activity, overall assessment [2]: inactive; Activity (%) po ([2]; single 10 mg/kg po): 0/0%; Activity (%) sc ([2]; single 10 mg/kg sc): 0/0% |
| c1ccc2c(c1)CCCC21OOC2(O1)C1CC3CC(C1)CC2C3 (stereo not shown) [OZ84, Adamantane-2-spiro-3′-1′,2′,4′-trioxolane-5′-spiro-1″-3″,4″-dihydro-2″H-naphthalene] |  | good | /1.9 ng/ml | 164.5 °C | very active |  |
| c1ccc2c(c1)CCC1(C2)OOC2(O1)C1CC3CC(C1)CC2C3 (stereo not shown) [OZ85, Adamantane-2-spiro-3′-1′,2′,4′-trioxolane-5′-spiro-2″-3″,4″-dihydro-1″H-naphthalene] |  |  | /2.0 ng/ml | 152.8 °C | very active |  |
